{"source": "patent US20250332112A1", "about": "“IONIZABLE CATIONIC LIPIDS FOR LIPID NANOPARTICLES” (GENEVANT SCIENCES GMBH, priority 2022, published 2025)", "key": {"[1]": {"test": "Particle characteristics of LNPs containing luciferase mRNA and novel ionizable lipids", "format": "physicochemical", "how_it_was_run": "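LNPs made from PEG-lipid, ionizable lipid, cholesterol and phospholipid in ethanol, T-mixed with luciferase mRNA in 100 mM acetate pH 5. Products were dialysed, concentrated, and dialysed into 5 mM Tris, 10% sucrose, pH 8, then 0.2 μm filtered. mRNA was measured by RiboGreen, and size and polydispersity by dynamic light scattering on a Zetasizer.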"}, "[2]": {"tested_on": "luciferase activity in the liver", "test": "Luciferase activity in liver after intravenous luciferase mRNA LNP", "format": "in vivo", "conditions": "0.5 mg/kg IV, 6 h post-IV administration, BALB/c mice (n = 4)"}, "[3]": {"test": "Particle characteristics of LNPs containing EGFP mRNA and novel ionizable lipids", "format": "physicochemical", "conditions": "EGFP mRNA LNP 1.6:54.6:32.8:10.9", "how_it_was_run": "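LNPs of PEG-lipid, ionizable lipid, cholesterol and phospholipid in ethanol were mixed 1:1 with mRNA in 100 mM acetate pH 5 via T-junction, diluted in PBS, dialysed, concentrated to ~0.6 mg/mL and exchanged into 5 mM Tris, 10% sucrose, pH 8. Size and polydispersity by Zetasizer; nucleic acid by RiboGreen.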"}, "[4]": {"test": "Lipid clearance from liver over time after EGFP mRNA LNP (LC-MS)", "format": "in vivo", "conditions": "IV 0.5 mg/kg EGFP mRNA LNP, female BALB/c mice (n = 4)", "protocol": "Liver tissues were treated with PBS and homogenized with a FastPrep machine, 3 cycles of 5 m/s×15 s. Homogenates from the PBS-treated control animals was pooled and used for standard curve preparation. Samples were extracted into a deep well plate with 250 μL of an internal suitability standard. Plates were centrifuged for 15 min at 4° C. and 2000 rpm. Analysis was performed using an Agilent 6520 QTOF coupled to an Agilent 1290 UHPLC, using reverse-phase LC separation. Quantitation of the ionizable lipid was by MS/MS against a calibration curve spiked into appropriately matched blank matrix. Calibration used a similar class of synthetic lipid as internal standard.\nAt various timepoints post-dose, lipid levels were assessed in the liver. Some novel ionizable lipids reported more rapid clearance rates compared to the benchmark (Table 33)."}, "[5]": {"conditions": "Table 1, luciferase mRNA LNP 1.6:54.6:32.8:10.9"}, "[6]": {"conditions": "Table 2, luciferase mRNA LNP 1.6:54.6:32.8:10.9"}, "[7]": {"conditions": "Table 3, luciferase mRNA LNP 1.6:54.6:32.8:10.9"}, "[8]": {"conditions": "Table 4, luciferase mRNA LNP 1.6:54.6:32.8:10.9"}, "[9]": {"conditions": "Table 5, luciferase mRNA LNP 1.6:54.6:32.8:10.9"}, "[10]": {"conditions": "Table 6, luciferase mRNA LNP 1.6:54.6:32.8:10.9"}, "[11]": {"conditions": "Table 7, luciferase mRNA LNP 1.6:54.6:32.8:10.9"}}, "data": [{"smiles": "CCCCC/C=C\\CCCC(CCC/C=C\\CCCCC)C(CCC/C=C\\CCCCC)OC(=O)CCCCN(C)C", "note": "(stereo not shown) [Compound 13-B43, reference compound]", "values": [{"measurement": "Final Product % EE", "setting": "[1]; [5]", "result": 94, "unit": "%"}, {"measurement": "Final Product PDI", "setting": "[1]; [5]", "result": 0.13}, {"measurement": "Final Product Z-avg", "setting": "[1]; Table 1, luciferase mRNA LNP 1.6:54.6:32.8:10.9 PEG2000-C-DMA:Ionizable lipid:Cholesterol:DSPC", "result": 70, "unit": "nm"}, {"measurement": "Final Product % EE", "setting": "[1]; [6]", "result": 99, "unit": "%"}, {"measurement": "Final Product PDI", "setting": "[1]; [6]", "result": "(0.03)"}, {"measurement": "Final Product Z-avg", "setting": "[1]; [6]", "result": 72, "unit": "nm"}, {"measurement": "Final Product % EE", "setting": "[1]; [7]", "result": 99, "unit": "%"}, {"measurement": "Final Product PDI", "setting": "[1]; [7]", "result": 0.06}, {"measurement": "Final Product Z-avg", "setting": "[1]; [7]", "result": 72, "unit": "nm"}, {"measurement": "Final Product % EE", "setting": "[1]; [8]", "result": 98, "unit": "%"}, {"measurement": "Final Product PDI", "setting": "[1]; [8]", "result": 0.07}, {"measurement": "Final Product Z-avg", "setting": "[1]; [8]", "result": 72, "unit": "nm"}, {"measurement": "Final Product % EE", "setting": "[1]; [9]", "result": 98, "unit": "%"}, {"measurement": "Final Product PDI", "setting": "[1]; [9]", "result": 0.06}, {"measurement": "Final Product Z-avg", "setting": "[1]; [9]", "result": 69, "unit": "nm"}, {"measurement": "Final Product % EE", "setting": "[1]; [10]", "result": 99, "unit": "%"}, {"measurement": "Final Product PDI", "setting": "[1]; [10]", "result": 0.07}, {"measurement": "Final Product Z-avg", "setting": "[1]; [10]", "result": 77, "unit": "nm"}, {"measurement": "Final Product % EE", "setting": "[1]; [11]", "result": 98, "unit": "%"}, {"measurement": "Final Product PDI", "setting": "[1]; [11]", "result": 0.06}, {"measurement": "Final Product Z-avg", "setting": "[1]; [11]", "result": 74, "unit": "nm"}, {"measurement": "Luc Activity", "setting": "[2]; Table 8", "result": "5.94E+07", "unit": "pg/g liver"}, {"measurement": "Luc Activity", "setting": "[2]; Table 9", "result": "7.29E+07", "unit": "pg/g liver"}, {"measurement": "Luc Activity", "setting": "[2]; Table 10", "result": "7.04E+07", "unit": "pg/g liver"}, {"measurement": "Luc Activity", "setting": "[2]; Table 11", "result": "6.86E+07", "unit": "pg/g liver"}, {"measurement": "Luc Activity", "setting": "[2]; Table 12", "result": "7.83E+07", "unit": "pg/g liver"}, {"measurement": "Luc Activity", "setting": "[2]; Table 13", "result": "7.60E+07", "unit": "pg/g liver"}, {"measurement": "Luc Activity", "setting": "[2]; Table 14", "result": "6.02E+07", "unit": "pg/g liver"}, {"measurement": "Final Product % EE", "setting": "[3]; Table 20", "result": 98, "unit": "%"}, {"measurement": "Final Product PDI", "setting": "[3]; Table 20", "result": 0.07}, {"measurement": "Final Product Z-avg", "setting": "[3]; Table 20", "result": 75, "unit": "nm"}, {"measurement": "Final Product % EE", "setting": "[3]; Table 21", "result": 97, "unit": "%"}, {"measurement": "Final Product PDI", "setting": "[3]; Table 21", "result": 0.08}, {"measurement": "Final Product Z-avg", "setting": "[3]; Table 21", "result": 75, "unit": "nm"}, {"measurement": "Final Product % EE", "setting": "[3]; Table 22", "result": 97, "unit": "%"}, {"measurement": "Final Product PDI", "setting": "[3]; Table 22", "result": 0.08}, {"measurement": "Final Product Z-avg", "setting": "[3]; Table 22", "result": 73, "unit": "nm"}, {"measurement": "Final Product % EE", "setting": "[3]; Table 23", "result": 98, "unit": "%"}, {"measurement": "Final Product PDI", "setting": "[3]; Table 23", "result": 0.15}, {"measurement": "Final Product Z-avg", "setting": "[3]; Table 23", "result": 76, "unit": "nm"}, {"measurement": "Parent ionizable lipid remaining in liver, Average", "setting": "[4]; 0.25 h post-dose", "result": 29.8, "unit": "nmol/g liver"}, {"measurement": "Parent ionizable lipid remaining in liver, Average", "setting": "[4]; 1 h post-dose", "result": 31.2, "unit": "nmol/g liver"}, {"measurement": "Parent ionizable lipid remaining in liver, Average", "setting": "[4]; 3 h post-dose", "result": 40.2, "unit": "nmol/g liver"}, {"measurement": "Parent ionizable lipid remaining in liver, Average", "setting": "[4]; 6 h post-dose", "result": 45.2, "unit": "nmol/g liver"}, {"measurement": "Parent ionizable lipid remaining in liver, Average", "setting": "[4]; 24 h post-dose", "result": 26.4, "unit": "nmol/g liver"}, {"measurement": "Parent ionizable lipid remaining in liver, Average", "setting": "[4]; 168 h post-dose", "result": 25.6, "unit": "nmol/g liver"}]}]}
